Test results published in ChEMBL document CHEMBL5625268, “Identification of novel benzothiazole derivatives as inhibitors of NEDDylation pathway to inhibit the progression of gastric cancer” (Bioorg Med Chem Lett, 2024).

Key:
[1] = test system: A549; assay: Antiproliferative activity against human A549 cells by CCK8 assay; type: functional, cell-based
[2] = test system: MGC-803; assay: Antiproliferative activity against human MGC-803 cells by CCK8 assay; type: functional, cell-based
[3] = test system: MCF7; assay: Antiproliferative activity against human MCF7 cells by CCK8 assay; type: functional, cell-based
[4] = test system: KYSE-30; assay: Antiproliferative activity against human KYSE-30 cells by CCK8 assay; type: functional, cell-based
[5] = target: T1, NEDD8-activating enzyme E1 regulatory subunit (Homo sapiens, UniProt Q13564); assay: Inhibition of NAE (unknown origin)
T1 sequence (Q13564 whole entry): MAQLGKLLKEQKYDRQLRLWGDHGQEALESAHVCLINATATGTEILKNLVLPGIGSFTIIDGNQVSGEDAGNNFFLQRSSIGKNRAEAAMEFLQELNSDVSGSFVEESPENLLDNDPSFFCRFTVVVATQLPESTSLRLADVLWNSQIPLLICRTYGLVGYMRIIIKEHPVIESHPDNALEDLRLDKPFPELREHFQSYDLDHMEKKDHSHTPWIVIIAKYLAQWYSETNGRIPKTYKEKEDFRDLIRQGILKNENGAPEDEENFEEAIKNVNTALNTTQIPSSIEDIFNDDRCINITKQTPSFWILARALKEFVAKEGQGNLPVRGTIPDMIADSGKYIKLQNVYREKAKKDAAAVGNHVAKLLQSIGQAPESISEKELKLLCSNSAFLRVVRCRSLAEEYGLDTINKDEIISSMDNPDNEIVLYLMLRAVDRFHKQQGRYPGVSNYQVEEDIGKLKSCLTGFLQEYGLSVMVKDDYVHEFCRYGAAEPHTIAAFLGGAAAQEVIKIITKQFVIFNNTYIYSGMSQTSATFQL

| IC50 [1] [µM] | IC50 [2] [µM] | IC50 [3] [µM] | IC50 [5] [µM] | Structure (SMILES) | IC50 [4] [µM] |
| --- | --- | --- | --- | --- | --- |
| 5.58 | 6.85 | 8.54 | – | O=C(Nc1nc2ccc(NC(=O)C3CCN(Cc4ccccc4)CC3)cc2s1)c1ccc(F)c(F)c1 | 1.82 |
| 8.13 | 7.84 | 10.7 | – | O=C(Nc1nc2ccc(NC(=O)C3CCN(Cc4ccccc4)CC3)cc2s1)c1ccc(-c2ccccc2)cc1 | 2.88 |
| 4.25 | 5.09 | 7.46 | – | O=C(Nc1nc2ccc(NC(=O)C3CCN(Cc4ccccc4)CC3)cc2s1)c1ccco1 | 7.41 |
| 29.1 | 30.1 | 37.5 | – | CCCC(=O)Nc1nc2ccc(NC(=O)C3CCN(Cc4ccccc4)CC3)cc2s1 | 22.7 |
| 41.2 | 4.91 | > 100 | – | Nc1ccc(SCC(=O)Nc2ccc3nc(NC(=O)c4ccc(C(F)(F)F)cc4)sc3c2)cc1 | 17.4 |
| 1.99 | 2.8 | 2.35 | – | O=C(Nc1nc2ccc(NC(=O)C3CCN(Cc4ccccc4)CC3)cc2s1)c1sccc1F | 2.03 |
| 4.51 | 12.7 | 5.74 | – | O=C(Nc1nc2ccc(NC(=O)C3CCN(Cc4ccccc4)CC3)cc2s1)c1ccc(F)cc1 | 1.08 |
| 6.29 | 8.53 | 4.58 | – | O=C(Nc1nc2ccc(NC(=O)C3CCN(Cc4ccccc4)CC3)cc2s1)c1ccc(C(F)(F)F)cc1 | 1.25 |
| 20.4 | 25.6 | 23.9 | – | O=C(Nc1nc2ccc(NC(=O)C3CCN(Cc4ccccc4)CC3)cc2s1)c1cccnc1 | 19.6 |
| 2.82 | 1.75 | 1.88 | – | O=C(Nc1nc2ccc(NC(=O)C3CCN(Cc4ccccc4)CC3)cc2s1)c1ccc(Cl)o1 | 1.9 |
| – | – | – | 0.004 | CCOc1cccc(F)c1C#Cc1cn([C@H]2O[C@@H](CNS(N)(=O)=O)[C@H](O)[C@@H]2O)c2ncnc(N)c12 | – |
| 12.8 | 15.7 | 11.9 | – | C/C=C/C(=O)Nc1nc2ccc(NC(=O)C3CCN(Cc4ccccc4)CC3)cc2s1 | 17.7 |
| 4.33 | 10.9 | 4.17 | – | O=C(Nc1nc2ccc(NC(=O)C3CCN(Cc4ccccc4)CC3)cc2s1)c1ccccc1 | 3.22 |
| 1.64 | 1.84 | – | – | NS(=O)(=O)OC[C@@H]1C[C@@H](n2ccc3c(N[C@H]4CCc5ccccc54)ncnc32)C[C@@H]1O [PEVONEDISTAT] | 3.75 |
| 5.26 | 12.9 | 11.4 | – | O=C(Nc1nc2ccc(NC(=O)C3CCN(Cc4ccccc4)CC3)cc2s1)c1ccccc1F | 2.29 |
| 1.35 | 1.85 | 1.63 | – | O=C(Nc1nc2ccc(NC(=O)C3CCN(Cc4ccccc4)CC3)cc2s1)c1ccc2c(c1)OCO2 | 1.33 |
| 3.31 | 4.74 | 13.1 | – | N#Cc1ccc(C(=O)Nc2nc3ccc(NC(=O)C4CCN(Cc5ccccc5)CC4)cc3s2)cc1 | 1.41 |
| – | – | – | 12 | COc1ccccc1/C=C1\SC(=O)N(CCC(=O)Nc2ccc(S(N)(=O)=O)cc2)C1=O | – |
| 2.18 | 3.82 | 2.78 | – | Cc1ccc(C(=O)Nc2nc3ccc(NC(=O)C4CCN(Cc5ccccc5)CC4)cc3s2)cc1 | 1.19 |
| 1.7 | 2.77 | 3.24 | – | O=C(Nc1nc2ccc(NC(=O)C3CCN(Cc4ccccc4)CC3)cc2s1)c1cccs1 | 1.64 |
| 2.47 | 3.31 | 2.89 | – | O=C(Nc1nc2ccc(NC(=O)C3CCN(Cc4ccccc4)CC3)cc2s1)c1sccc1Br | 2.63 |
| 3.77 | 10.7 | 15.9 | – | O=C(Nc1nc2ccc(NC(=O)C3CCN(Cc4ccccc4)CC3)cc2s1)c1ccc(F)cc1Cl | 2.08 |
| 7.25 | 8.76 | 11.9 | – | O=C(Nc1nc2ccc(NC(=O)C3CCN(Cc4ccccc4)CC3)cc2s1)c1ccc2ccccc2c1 | 3 |
| 1.28 | 1.87 | 1.55 | – | CCCc1ccc(C(=O)Nc2nc3ccc(NC(=O)C4CCN(Cc5ccccc5)CC4)cc3s2)cc1 | 0.91 |
| 4.94 | 13 | 7.32 | – | O=C(Nc1nc2ccc(NC(=O)C3CCN(Cc4ccccc4)CC3)cc2s1)c1cccc(F)c1 | 1.71 |
| 5.6 | 4.96 | 4.15 | – | COc1cc(C(=O)Nc2nc3ccc(NC(=O)C4CCN(Cc5ccccc5)CC4)cc3s2)cc(OC)c1OC | 1.08 |
| 11.4 | 11 | 11.7 | – | O=C(Nc1ccc2nc(NC(=O)C3COc4ccccc4O3)sc2c1)C1CCN(Cc2ccccc2)CC1 (stereo not given) | 13.8 |
| 1.19 | 1.69 | 0.98 | – | O=C(Nc1nc2ccc(NC(=O)C3CCN(Cc4ccccc4)CC3)cc2s1)c1cscn1 | 0.73 |
